Laboratory results taken from patent publication US10292985B2, “TGF beta receptor antagonists” (BRISTOL-MYERS SQUIBB COMPANY, priority 2015, dated 2019).
pIC50: −log10 of the molar value.

Target: HIS-TGFβR1 T204D (Homo sapiens (Human), UniProt P36897, T204D)
Experiment: HTRF probe-displacement assay, TGFβR1
Type: binding
Procedure: Em: 520 nm/495 nm). […] Compounds were dissolved at 10 mM in dimethylsulfoxide (DMSO) and evaluated at eleven concentrations. IC50 values were derived by non-linear regression analysis.

[1] = HIS-TGFβR1 T204D, 1 nM, 1 hour at room temperature
[2] = GST tagged wild type protein used instead of HIS-tagged protein (starred values)

Sequence of HIS-TGFβR1 T204D (P36897 34-503 T204D): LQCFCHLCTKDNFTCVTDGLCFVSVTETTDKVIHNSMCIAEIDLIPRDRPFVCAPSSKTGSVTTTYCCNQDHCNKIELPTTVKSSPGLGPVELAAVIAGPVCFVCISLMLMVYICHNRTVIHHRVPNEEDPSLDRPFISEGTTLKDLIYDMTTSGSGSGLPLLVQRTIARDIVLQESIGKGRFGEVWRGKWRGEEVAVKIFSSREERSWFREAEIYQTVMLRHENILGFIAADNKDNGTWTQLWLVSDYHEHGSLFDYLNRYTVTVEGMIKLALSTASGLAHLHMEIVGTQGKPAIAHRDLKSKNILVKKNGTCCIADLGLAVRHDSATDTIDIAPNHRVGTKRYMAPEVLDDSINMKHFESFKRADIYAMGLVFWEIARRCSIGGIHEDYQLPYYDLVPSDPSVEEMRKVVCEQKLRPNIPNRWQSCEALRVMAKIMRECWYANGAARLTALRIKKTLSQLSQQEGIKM

## FC(F)(F)c1cccc(-c2nc(Nc3ccnc4cccnc34)c3cccn3n2)n1 [Example 2, N-{2-[6-(trifluoromethyl)pyridin-2-yl]pyrrolo[2,1-f][1,2,4]triazin-4-yl}-1,5-naphthyridin-4-amine]
[1]
  pIC50: 7.70

## COc1cccc(-c2nc(Nc3ccc4ncccc4c3)c3cccn3n2)n1 [Example 3, N-(2-(6-methoxypyridin-2-yl)pyrrolo[2,1-f][1,2,4]triazin-4-yl)quinolin-6-amine]
[1]
  pIC50: 4.89

## Cc1ccc(F)c(-c2nc(-n3ccc4cnccc43)c3cccn3n2)n1 [Example 4, 3-fluoro-6-methyl-2-(4-{1H-pyrrolo[3,2-c]pyridin-1-yl}pyrrolo[2,1-f][1,2,4]triazin-2-yl)pyridine]
[2]
  pIC50: 7.74

## Cc1cccc(-c2nc(-n3ccc4cnccc43)c3cccn3n2)n1 [Example 5, 2-methyl-6-(4-{1H-pyrrolo[3,2-c]pyridin-1-yl}pyrrolo[2,1-f][1,2,4]triazin-2-yl)pyridine]
[1]
  pIC50: 9.02

## Fc1cccc(-c2nc(-n3ccc4cnccc43)c3cccn3n2)n1 [Example 6, 2-fluoro-6-(4-{1H-pyrrolo[3,2-c]pyridin-1-yl}pyrrolo[2,1-f][1,2,4]triazin-2-yl)pyridine]
[1]
  pIC50: 8.85

## Cn1cnc2ccc(Nc3nc(-c4ccccn4)nn4cccc34)cc21 [Example 7, 1-methyl-N-[2-(pyridin-2-yl)pyrrolo[2,1-f][1,2,4]triazin-4-yl]-1H-1,3-benzodiazol-6-amine]
[1]
  pIC50: 6.62

## c1ccc(-c2nc(-n3ccc4cnccc43)c3cccn3n2)nc1 [Example 8, 2-(4-{1H-pyrrolo[3,2-c]pyridin-1-yl}pyrrolo[2,1-f][1,2,4]triazin-2-yl)pyridine]
[1]
  pIC50: 8.96

## c1ccc(-c2nc(-n3cnc4cnccc43)c3cccn3n2)nc1 [Example 9, 2-(4-{1H-imidazo[4,5-c]pyridin-1-yl}pyrrolo[2,1-f][1,2,4]triazin-2-yl)pyridine]
[1]
  pIC50: 8.29

## c1ccc(-c2nc(-n3ccc4ccncc43)c3cccn3n2)nc1 [Example 10, 2-(4-{1H-pyrrolo[2,3-c]pyridin-1-yl}pyrrolo[2,1-f][1,2,4]triazin-2-yl)pyridine]
[1]
  pIC50: 6.51

## COc1ccc2nccc(Nc3nc(-c4cccc(C)n4)nn4cccc34)c2c1 [Example 11, 6-methoxy-N-[2-(6-methylpyridin-2-yl)pyrrolo[2,1-f][1,2,4]triazin-4-yl]quinolin-4-amine]
[1]
  pIC50: 8.19

## Cc1cccc(-c2nc(Nc3ccnc4ccc(Br)cc34)c3cccn3n2)n1 [Example 12, 6-bromo-N-[2-(6-methylpyridin-2-yl)pyrrolo[2,1-f][1,2,4]triazin-4-yl]quinolin-4-amine]
[2]
  pIC50: 6.55

## COc1ccc2c(Nc3nc(-c4cccc(C)n4)nn4cccc34)ccnc2c1 [Example 13, 7-methoxy-N-[2-(6-methylpyridin-2-yl)pyrrolo[2,1-f][1,2,4]triazin-4-yl]quinolin-4-amine]
[1]
  pIC50: 8.96

## Cc1cccc(-c2nc(Nc3ccnc4ccc(F)cc34)c3cccn3n2)n1 [Example 14, 6-fluoro-N-[2-(6-methylpyridin-2-yl)pyrrolo[2,1-f][1,2,4]triazin-4-yl]quinolin-4-amine]
[1]
  pIC50: 8.18

## Cc1cccc(-c2nc(Nc3ccnc4ccc(Cl)cc34)c3cccn3n2)n1 [Example 15, 6-chloro-N-[2-(6-methylpyridin-2-yl)pyrrolo[2,1-f][1,2,4]triazin-4-yl]quinolin-4-amine]
[1]
  pIC50: 8.33

## Cc1cccc(-c2nc(Nc3ccnc4ccc(C(F)(F)F)cc34)c3cccn3n2)n1 [Example 16, N-[2-(6-methylpyridin-2-yl)pyrrolo[2,1-f][1,2,4]triazin-4-yl]-6-(trifluoromethyl)quinolin-4-amine]
[2]
  pIC50: 6.03

## Cc1cccc(-c2nc(Nc3ccnc4cc(C(F)(F)F)ccc34)c3cccn3n2)n1 [Example 17, N-[2-(6-methylpyridin-2-yl)pyrrolo[2,1-f][1,2,4]triazin-4-yl]-7-(trifluoromethyl)quinolin-4-amine]
[1]
  pIC50: 8.85

## Cc1cccc(-c2nc(Nc3ccnc4ccncc34)c3cccn3n2)n1 [Example 18, N-[2-(6-methylpyridin-2-yl)pyrrolo[2,1-f][1,2,4]triazin-4-yl]-1,6-naphthyridin-4-amine]
[1]
  pIC50: 8.36

## Cc1cccc(-c2nc(Nc3ccnc4cccnc34)c3cccn3n2)n1 [Example 19, N-[2-(6-methylpyridin-2-yl)pyrrolo[2,1-f][1,2,4]triazin-4-yl]-1,5-naphthyridin-4-amine]
[1]
  pIC50: 8.29

## COc1ccc2c(Nc3nc(-c4cccc(C(F)(F)F)n4)nn4cccc34)ccnc2c1 [Example 20, 7-methoxy-N-{2-[6-(trifluoromethyl)pyridin-2-yl]pyrrolo[2,1-f][1,2,4]triazin-4-yl}quinolin-4-amine]
[1]
  pIC50: 8.38

## COc1ccc2c(Nc3nc(-c4cccc(C(F)F)n4)nn4cccc34)ccnc2c1 [Example 21, N-{2-[6-(difluoromethyl)pyridin-2-yl]pyrrolo[2,1-f][1,2,4]triazin-4-yl}-7-methoxyquinolin-4-amine]
[1]
  pIC50: 8.74

## FC(F)c1cccc(-c2nc(Nc3ccnc4cccnc34)c3cccn3n2)n1 [Example 22, N-{2-[6-(difluoromethyl)pyridin-2-yl]pyrrolo[2,1-f][1,2,4]triazin-4-yl}-1,5-napthyridin-4-amine]
[1]
  pIC50: 8.24

## Cc1nc(-c2nc(-n3ccc4cnccc43)c3cccn3n2)ccc1F [Example 23, 3-fluoro-2-methyl-6-(4-{1H-pyrrolo[3,2-c]pyridin-1-yl}pyrrolo[2,1-f][1,2,4]triazin-2-yl)pyridine]
[1]
  pIC50: 8.89

## COc1cccc(-c2nc(-n3ccc4cnccc43)c3c(Cl)ccn3n2)n1 [Example 24, 2-(5-chloro-4-{1H-pyrrolo[3,2-c]pyridin-1-yl}pyrrolo[2,1-f][1,2,4]triazin-2-yl)-6-methoxypyridine]
[1]
  pIC50: 8.00

## CS(=O)(=O)Nc1cccc(-c2nc(-n3ccc4cnccc43)c3cccn3n2)n1 [Example 25, N-[6-(4-{1H-pyrrolo[3,2-c]pyridin-1-yl}pyrrolo[2,1-f][1,2,4]triazin-2-yl)pyridin-2-yl]methanesulfonamide]
[2]
  pIC50: 7.48

## CCc1cccc(-c2nc(-n3ccc4cnccc43)c3cccn3n2)n1 [Example 26, 2-ethyl-6-(4-{1H-pyrrolo[3,2-c]pyridin-1-yl}pyrrolo[2,1-f][1,2,4]triazin-2-yl)pyridine]
[1]
  pIC50: 8.92

## c1cc(-c2nc(-n3ccc4cnccc43)c3cccn3n2)nc(C2CC2)c1 [Example 27, 2-cyclopropyl-6-(4-{1H-pyrrolo[3,2-c]pyridin-1-yl}pyrrolo[2,1-f][1,2,4]triazin-2-yl)pyridine]
[1]
  pIC50: 8.89

## FC(F)(F)c1cccc(-c2nc(-n3ccc4cnccc43)c3cccn3n2)n1 [Example 28, 2-(4-{1H-pyrrolo[3,2-c]pyridin-1-yl}pyrrolo[2,1-f][1,2,4]triazin-2-yl)-6-(trifluoromethyl)pyridine]
[1]
  pIC50: 8.42

## FC(F)c1cccc(-c2nc(-n3ccc4cnccc43)c3cccn3n2)n1 [Example 29, 2-(difluoromethyl)-6-(4-{1H-pyrrolo[3,2-c]pyridin-1-yl}pyrrolo[2,1-f][1,2,4]triazin-2-yl)pyridine]
[1]
  pIC50: 8.54

## COc1cccc(-c2nc(-n3ncc4cnccc43)c3cccn3n2)n1 [Example 30, 2-methoxy-6-(4-{1H-pyrazolo[4,3-c]pyridin-1-yl}pyrrolo[2,1-f][1,2,4]triazin-2-yl)pyridine]
[1]
  pIC50: 7.17

## Clc1cccc(-c2nc(-n3ccc4cnccc43)c3cccn3n2)n1 [Example 31, 2-chloro-6-(4-{1H-pyrrolo[3,2-c]pyridin-1}-ylpyrrolo[2,1-f][1,2,4]triazin-2-yl)pyridine]
[1]
  pIC50: 8.33

## COc1cccc(-c2nc(-n3ccc4cnccc43)c3cccn3n2)n1 [Example 32, 2-methoxy-6-(4-{1H-pyrrolo[3,2-c]pyridin-1-yl}pyrrolo[2,1-f][1,2,4]triazin-2-yl)pyridine]
[1]
  pIC50: 8.21

## Cc1ccc(-c2nc(-n3ccc4cnccc43)c3cccn3n2)nc1 [Example 34, 5-methyl-2-(4-{1H-pyrrolo[3,2-c]pyridin-1-yl}pyrrolo[2,1-f][1,2,4]triazin-2-yl)pyridine]
[1]
  pIC50: 7.92

## CSc1nccc(-c2nc(-n3ccc4cnccc43)c3cccn3n2)n1 [Example 35, 2-(methylsulfanyl)-4-(4-{1H-pyrrolo[3,2-c]pyridin-1-yl}pyrrolo[2,1-f][1,2,4]triazin-2-yl)pyrimidine]
[1]
  pIC50: 8.66

## Cc1cccc(-c2nc(Nc3ccc4[nH]ncc4c3)c3cccn3n2)n1 [Example 36, N-[2-(6-methylpyridin-2-yl)pyrrolo[2,1-f][1,2,4]triazin-4-yl]-1H-indazol-5-amine]
[1]
  pIC50: 8.82
